Reference: patent US20110038959A1, “PLANT-ORIGIN DRUG FOR PREVENTING OR IMPROVING HYPERURICEMIA” (priority 2009, published 2011)

Columns and labels:
[1] = molecular target: T1, buttermilk-derived xanthine oxidase (Bos taurus, UniProt P80457); assay: Xanthine oxidase inhibitory activity assay (xanthine substrate, uric acid detected by absorbance at 295 nm); type: biochemical
T1 construct: an enzyme solution comprising buttermilk-derived xanthine oxidase dissolved at 0.2 units/ml in phosphate buffer; from tissue; host or cells: buttermilk
T1 sequence (P80457 whole entry): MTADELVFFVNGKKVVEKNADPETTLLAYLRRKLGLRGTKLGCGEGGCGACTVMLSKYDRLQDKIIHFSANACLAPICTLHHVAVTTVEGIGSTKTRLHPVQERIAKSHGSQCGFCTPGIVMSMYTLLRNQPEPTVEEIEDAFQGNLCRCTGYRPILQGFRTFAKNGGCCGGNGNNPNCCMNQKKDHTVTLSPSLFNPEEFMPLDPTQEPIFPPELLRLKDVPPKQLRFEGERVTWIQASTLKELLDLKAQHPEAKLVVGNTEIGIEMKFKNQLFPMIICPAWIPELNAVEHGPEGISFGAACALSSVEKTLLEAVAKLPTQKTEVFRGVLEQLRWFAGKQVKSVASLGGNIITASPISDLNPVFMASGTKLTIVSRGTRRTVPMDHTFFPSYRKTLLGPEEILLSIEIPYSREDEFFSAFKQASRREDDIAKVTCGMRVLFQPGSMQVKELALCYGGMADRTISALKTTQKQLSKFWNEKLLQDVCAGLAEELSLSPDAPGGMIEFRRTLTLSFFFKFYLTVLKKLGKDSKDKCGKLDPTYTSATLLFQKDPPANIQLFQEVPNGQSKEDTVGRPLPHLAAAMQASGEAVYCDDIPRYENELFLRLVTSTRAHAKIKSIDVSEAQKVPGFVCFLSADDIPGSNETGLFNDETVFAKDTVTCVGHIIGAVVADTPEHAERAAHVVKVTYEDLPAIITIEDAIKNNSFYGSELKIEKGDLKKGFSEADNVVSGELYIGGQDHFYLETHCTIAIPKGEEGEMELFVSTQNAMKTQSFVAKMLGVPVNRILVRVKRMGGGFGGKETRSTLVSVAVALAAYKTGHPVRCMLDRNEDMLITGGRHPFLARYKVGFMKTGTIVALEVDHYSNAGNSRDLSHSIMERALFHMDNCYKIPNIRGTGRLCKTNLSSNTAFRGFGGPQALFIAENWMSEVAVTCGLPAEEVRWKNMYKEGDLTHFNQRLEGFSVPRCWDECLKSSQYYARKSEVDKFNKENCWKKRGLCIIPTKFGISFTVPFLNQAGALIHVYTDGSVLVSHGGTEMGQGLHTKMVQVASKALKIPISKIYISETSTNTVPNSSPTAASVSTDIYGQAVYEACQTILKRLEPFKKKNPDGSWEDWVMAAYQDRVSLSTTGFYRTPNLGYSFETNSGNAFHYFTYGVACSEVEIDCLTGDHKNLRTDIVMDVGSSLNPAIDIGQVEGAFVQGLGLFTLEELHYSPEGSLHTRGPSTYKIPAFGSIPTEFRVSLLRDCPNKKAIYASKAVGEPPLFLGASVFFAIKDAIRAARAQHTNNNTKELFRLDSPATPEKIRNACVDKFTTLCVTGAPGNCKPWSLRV

[2] = test system: potassium oxonate-induced hyperuricemic rat models; assay: Uric acid level in blood of potassium oxonate-induced hyperuricemic rat models; type: in vivo, SD rats
Protocol: 5-week-old male SD rats were purchased from Japan SLC, Inc. and were acclimatized for 1 week. The rats were divided into groups based on body weight (each group consisting of 6 rats), and 5 groups were designated in total; i.e., a control group, a group to which the Artemisia extract is administered, a group to which the chrysanthemum extract is administered, a group to which the guava extract is administered, and a group to which the oregano extract is administered. At the outset, potassium oxonate (Sigma-Aldrich) was administered intraperitoneally to rats at a dose of 250 mg/kg of body weight to prepare potassium oxonate-induced hyperuricemic rat models. […] Blood serum was fractionated from the sampled blood via centrifugation and the uric acid level in the blood was measured. […] Blood serum was fractionated from the sampled blood via centrifugation and the uric acid level in the blood was measured. […] Blood serum was fractionated from the sampled blood via centrifugation and the uric acid level in the blood was measured.

O=C(/C=C/c1ccc(O)c(O)c1)c1ccc(O)c(O)c1O [Okanin, okanin]
xanthine oxidase activity compared with allopurinol (in words) ([1]; comparison of IC50 values, Table 2): more potent xanthine oxidase activity than allopurinol
IC50 ([1]; concentration inhibiting 50% of xanthine oxidase activity, solvent control = 100%): 1.5 µM
Uric acid level in blood ([2]; 50 mg okanin per kg body weight 1 hour after potassium oxonate (250 mg/kg i.p.), blood sampled 2 hours after potassium oxonate, control group 4.92 ± 0.53): 4.10 ± 0.56 mg/dL
uric acid level after administration (in words) ([2]; okanin 50 mg/kg, blood 2 hours after potassium oxonate, versus control group, Table 5): significantly lowered uric acid level
